According to ChEMBL document CHEMBL5226282, “TLR2 Agonistic Small Molecules: Detailed Structure-Activity Relationship, Applications, and Future Prospects” (J Med Chem, 2021):

target: Toll-like receptor 2 (Mus musculus) (UniProt Q9QUN7); assay: Agonist activity at mouse TLR2 transfected in HEK293 cells relative to control; type: cell-based; parameters: concentration or dose not given beside the values; conditions: not given
Sequence (Q9QUN7 whole entry): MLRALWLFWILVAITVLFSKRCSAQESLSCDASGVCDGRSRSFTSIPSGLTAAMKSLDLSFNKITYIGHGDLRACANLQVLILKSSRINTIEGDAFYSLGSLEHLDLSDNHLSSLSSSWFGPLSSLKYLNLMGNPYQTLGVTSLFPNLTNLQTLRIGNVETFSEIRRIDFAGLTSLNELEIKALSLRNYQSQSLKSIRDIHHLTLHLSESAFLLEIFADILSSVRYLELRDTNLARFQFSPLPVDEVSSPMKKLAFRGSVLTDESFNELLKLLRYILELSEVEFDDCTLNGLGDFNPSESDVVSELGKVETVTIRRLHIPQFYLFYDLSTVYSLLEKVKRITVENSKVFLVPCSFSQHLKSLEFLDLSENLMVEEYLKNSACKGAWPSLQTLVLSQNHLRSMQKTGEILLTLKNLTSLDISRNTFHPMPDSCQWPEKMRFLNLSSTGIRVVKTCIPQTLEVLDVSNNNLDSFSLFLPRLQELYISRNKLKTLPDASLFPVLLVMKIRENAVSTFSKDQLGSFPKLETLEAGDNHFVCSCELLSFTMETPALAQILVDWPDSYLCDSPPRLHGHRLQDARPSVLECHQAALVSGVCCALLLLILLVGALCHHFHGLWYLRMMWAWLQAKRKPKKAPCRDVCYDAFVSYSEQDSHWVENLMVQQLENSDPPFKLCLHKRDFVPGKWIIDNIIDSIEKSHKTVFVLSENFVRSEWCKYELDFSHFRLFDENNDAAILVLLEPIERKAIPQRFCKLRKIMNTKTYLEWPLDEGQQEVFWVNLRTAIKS

| Activity [%] | Compound |
| --- | --- |
| 0 | CCCCCCCCCCCCCCCC(=O)N[C@H](CSCC(COC(=O)CCCCCCC)OC(=O)CCCCCCC)C(=O)N[C@@H](CO)C(=O)N[C@@H](CCCCN)C(=O)N[C@@H](CCCCN)C(=O)N[C@@H](CCCCN)C(=O)N[C@@H](CCCCN)C(=O)O (stereo not given in full) |
| 11 | CCCCCCCCCC(=O)N[C@H](CSCC(COC(=O)CCCCCCC)OC(=O)CCCCCCC)C(=O)N[C@@H](CO)C(=O)N[C@@H](CCCCN)C(=O)N[C@@H](CCCCN)C(=O)N[C@@H](CCCCN)C(=O)N[C@@H](CCCCN)C(=O)O (stereo not given in full) |
| 0 | CCCCCCCCCCCCCCCC(=O)N[C@H](CSCC(COC(=O)CCCCC)OC(=O)CCCCC)C(=O)N[C@@H](CO)C(=O)N[C@@H](CCCCN)C(=O)N[C@@H](CCCCN)C(=O)N[C@@H](CCCCN)C(=O)N[C@@H](CCCCN)C(=O)O (stereo not given in full) |

Second part, the compound before the results:

| Compound | Activity [%] |
| --- | --- |
| CCCCCCCCCCCCCC(=O)N[C@H](CSCC(COC(=O)CCCCC)OC(=O)CCCCC)C(=O)N[C@@H](CO)C(=O)N[C@@H](CCCCN)C(=O)N[C@@H](CCCCN)C(=O)N[C@@H](CCCCN)C(=O)N[C@@H](CCCCN)C(=O)O (stereo not given in full) | 0 |
| CCCCCCCC(=O)OCC(CSC[C@@H](NC(=O)Cc1ccccc1)C(=O)N[C@@H](CO)C(=O)N[C@@H](CCCCN)C(=O)N[C@@H](CCCCN)C(=O)N[C@@H](CCCCN)C(=O)N[C@@H](CCCCN)C(=O)O)OC(=O)CCCCCCC (stereo not given in full) | 11 |
| CCCCCCCCCC(=O)N[C@H](CSCC(COC(=O)CCCCC)OC(=O)CCCCC)C(=O)N[C@@H](CO)C(=O)N[C@@H](CCCCN)C(=O)N[C@@H](CCCCN)C(=O)N[C@@H](CCCCN)C(=O)N[C@@H](CCCCN)C(=O)O (stereo not given in full) | < 10 |
| CCCCCCCCCCCCCCCC(=O)N[C@H](CSCC(COC(=O)CC)OC(=O)CC)C(=O)N[C@@H](CO)C(=O)N[C@@H](CCCCN)C(=O)N[C@@H](CCCCN)C(=O)N[C@@H](CCCCN)C(=O)N[C@@H](CCCCN)C(=O)O (stereo not given in full) | 26 |
| CCCCCC(=O)N[C@H](CSCC(COC(=O)CCCCC)OC(=O)CCCCC)C(=O)N[C@@H](CO)C(=O)N[C@@H](CCCCN)C(=O)N[C@@H](CCCCN)C(=O)N[C@@H](CCCCN)C(=O)N[C@@H](CCCCN)C(=O)O (stereo not given in full) | 0 |
| CCCCCC(=O)N[C@H](CSCC(COC(=O)CC)OC(=O)CC)C(=O)N[C@@H](CO)C(=O)N[C@@H](CCCCN)C(=O)N[C@@H](CCCCN)C(=O)N[C@@H](CCCCN)C(=O)N[C@@H](CCCCN)C(=O)O (stereo not given in full) | 11 |
| CCCCCCCCCC(=O)N[C@H](CSCC(COC(=O)CC)OC(=O)CC)C(=O)N[C@@H](CO)C(=O)N[C@@H](CCCCN)C(=O)N[C@@H](CCCCN)C(=O)N[C@@H](CCCCN)C(=O)N[C@@H](CCCCN)C(=O)O (stereo not given in full) | 26 |

same assay, conditions: filed as agonist

| Activity [%] | Compound |
| --- | --- |
| > 100 | CCCCCCCCCCCCCCCC(=O)OCC(CSC[C@@H](NC(=O)CCCCCCCCCCCCC)C(=O)N[C@@H](CO)C(=O)N[C@@H](CCCCN)C(=O)N[C@@H](CCCCN)C(=O)N[C@@H](CCCCN)C(=O)N[C@@H](CCCCN)C(=O)O)OC(=O)CCCCCCCCCCCCCCC (stereo not given in full) |
| > 100 | CCCCCCCCCCCCCCCC(=O)OCC(CSC[C@@H](NC(=O)CCCCCCCCC)C(=O)N[C@@H](CO)C(=O)N[C@@H](CCCCN)C(=O)N[C@@H](CCCCN)C(=O)N[C@@H](CCCCN)C(=O)N[C@@H](CCCCN)C(=O)O)OC(=O)CCCCCCCCCCCCCCC (stereo not given in full) |
| > 100 | CCCCCCCCCCCCCCCC(=O)OCC(CSC[C@@H](NC(=O)CCCCC)C(=O)N[C@@H](CO)C(=O)N[C@@H](CCCCN)C(=O)N[C@@H](CCCCN)C(=O)N[C@@H](CCCCN)C(=O)N[C@@H](CCCCN)C(=O)O)OC(=O)CCCCCCCCCCCCCCC (stereo not given in full) |
| 51 | CCCCCCCCCCCCCC(=O)N[C@H](CSCC(COC(=O)CC)OC(=O)CC)C(=O)N[C@@H](CO)C(=O)N[C@@H](CCCCN)C(=O)N[C@@H](CCCCN)C(=O)N[C@@H](CCCCN)C(=O)N[C@@H](CCCCN)C(=O)O (stereo not given in full) |
| 51 | CCCCCCCCCCCCCCCC(=O)N[C@H](CSCC(COC(=O)CCCCCCCCCCCCCCC)OC(=O)CCCCCCCCCCCCCCC)C(=O)N[C@@H](CO)C(=O)N[C@@H](CCCCN)C(=O)N[C@@H](CCCCN)C(=O)N[C@@H](CCCCN)C(=O)N[C@@H](CCCCN)C(=O)O (stereo not given in full) |
